Reference: patent US9693556B2, “Herbicidal pyridazinone derivatives” (SYNGENTA LIMITED, priority 2011, dated 2017)

Experiments:
Assay type in all cases: in vivo
[1] = tested on: Setaria faberi (SETFA); experiment: Pre-emergence herbicidal glasshouse test on Setaria faberi; settings: pre-emergence; 1000 g/h; evaluated after 13 days
Outline: (§1)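 Steps: sow seeds in standard soil; cultivate 1 d (pre-) or 8 d (post-emergence) at 24/16 °C, 14 h light, 65% humidity; spray 1000 g/h in acetone/water plus Tween 20; grow on, watering twice daily; score percentage damage after 13 d.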

[2] = tested on: Solanum nigrum (SOLNI); experiment: Post-emergence herbicidal glasshouse test on Solanum nigrum; settings: post-emergence; 1000 g/h; evaluated after 13 days
Outline: as §1

[3] = tested on: Alopecurus myosuroides (ALOMY); experiment: Pre-emergence herbicidal glasshouse test on Alopecurus myosuroides; settings: pre-emergence; 1000 g/h; evaluated after 13 days
Outline: as §1

[4] = tested on: Alopecurus myosuroides (ALOMY); experiment: Post-emergence herbicidal glasshouse test on Alopecurus myosuroides; settings: post-emergence; 1000 g/h; evaluated after 13 days
Outline: as §1

[5] = tested on: Setaria faberi (SETFA); experiment: Post-emergence herbicidal glasshouse test on Setaria faberi; settings: post-emergence; 1000 g/h; evaluated after 13 days
Outline: as §1

[6] = tested on: Solanum nigrum (SOLNI); experiment: Pre-emergence herbicidal glasshouse test on Solanum nigrum; settings: pre-emergence; 1000 g/h; evaluated after 13 days
Outline: as §1

[7] = tested on: Echinochloa crus-galli (ECHCG); experiment: Pre-emergence herbicidal glasshouse test on Echinochloa crus-galli; settings: pre-emergence; 1000 g/h; evaluated after 13 days
Outline: as §1

[8] = tested on: Ipomoea hederacea (IPOHE); experiment: Post-emergence herbicidal glasshouse test on Ipomoea hederacea; settings: post-emergence; 1000 g/h; evaluated after 13 days
Outline: as §1

[9] = tested on: Amaranthus retoflexus (AMARE); experiment: Post-emergence herbicidal glasshouse test on Amaranthus retoflexus; settings: post-emergence; 1000 g/h; evaluated after 13 days
Outline: as §1

[10] = tested on: Ipomoea hederacea (IPOHE); experiment: Pre-emergence herbicidal glasshouse test on Ipomoea hederacea; settings: pre-emergence; 1000 g/h; evaluated after 13 days
Outline: as §1

[11] = tested on: Echinochloa crus-galli (ECHCG); experiment: Post-emergence herbicidal glasshouse test on Echinochloa crus-galli; settings: post-emergence; 1000 g/h; evaluated after 13 days
Outline: as §1

[12] = tested on: Amaranthus retoflexus (AMARE); experiment: Pre-emergence herbicidal glasshouse test on Amaranthus retoflexus; settings: pre-emergence; 1000 g/h; evaluated after 13 days
Outline: as §1

| Structure (SMILES) | PRE Application SETFA herbicidal damage (five point scale) [1] | POST Application SOLNI herbicidal damage (five point scale) [2] | PRE Application ALOMY herbicidal damage (five point scale) [3] | POST Application ALOMY herbicidal damage (five point scale) [4] | POST Application SETFA herbicidal damage (five point scale) [5] | PRE Application SOLNI herbicidal damage (five point scale) [6] | PRE Application ECHCG herbicidal damage (five point scale) [7] | POST Application IPOHE herbicidal damage (five point scale) [8] | POST Application AMARE herbicidal damage (five point scale) [9] | PRE Application IPOHE herbicidal damage (five point scale) [10] | POST Application ECHCG herbicidal damage (five point scale) [11] | PRE Application AMARE herbicidal damage (five point scale) [12] |
| --- | --- | --- | --- | --- | --- | --- | --- | --- | --- | --- | --- | --- |
| Cn1ncc(-n2ccc(C(F)(F)F)c(-c3ccccc3C(F)(F)F)c2=O)c(O)c1=O [Compound 1.052] | 4 (4=60-79% damage) | 5 (5=80-100% damage) | 4 (4=60-79% damage) | 4 (4=60-79% damage) | 5 (5=80-100% damage) | 5 (5=80-100% damage) | 5 (5=80-100% damage) | 5 (5=80-100% damage) | 5 (5=80-100% damage) | 1 (1=0-19% damage) | 5 (5=80-100% damage) | 5 (5=80-100% damage) |
| Cc1ccccc1-c1c(C(F)(F)F)ccn(-c2cnn(C)c(=O)c2O)c1=O [Compound 1.053] | 4 (4=60-79% damage) | 5 (5=80-100% damage) | 5 (5=80-100% damage) | 5 (5=80-100% damage) | 4 (4=60-79% damage) | 5 (5=80-100% damage) | 5 (5=80-100% damage) | 5 (5=80-100% damage) | 5 (5=80-100% damage) | 2 (2=20-39% damage) | 5 (5=80-100% damage) | 5 (5=80-100% damage) |
| Cn1ncc(-n2ccc(C(F)(F)F)c(-c3ccccc3)c2=O)c(O)c1=O [Compound 1.054] | 5 (5=80-100% damage) | 5 (5=80-100% damage) | 5 (5=80-100% damage) | 5 (5=80-100% damage) | 5 (5=80-100% damage) | 5 (5=80-100% damage) | 5 (5=80-100% damage) | 4 (4=60-79% damage) | 5 (5=80-100% damage) | 3 (3=40-59% damage) | 5 (5=80-100% damage) | 5 (5=80-100% damage) |
| Cn1ncc(-c2ccccc2[S+]([O-])C(F)(F)F)c(O)c1=O (stereo not drawn) [Compound 1.055] | 1 (1=0-19% damage) | 5 (5=80-100% damage) | 1 (1=0-19% damage) | 1 (1=0-19% damage) | 1 (1=0-19% damage) | 4 (4=60-79% damage) | 2 (2=20-39% damage) | 4 (4=60-79% damage) | 5 (5=80-100% damage) | 2 (2=20-39% damage) | 4 (4=60-79% damage) | 5 (5=80-100% damage) |
| Cn1ncc(-c2ccccc2S(=O)(=O)C(F)(F)F)c(O)c1=O [Compound 1.056] | 1 (1=0-19% damage) | 5 (5=80-100% damage) | 5 (5=80-100% damage) | 5 (5=80-100% damage) | 5 (5=80-100% damage) | 4 (4=60-79% damage) | 5 (5=80-100% damage) | 5 (5=80-100% damage) | 5 (5=80-100% damage) | 1 (1=0-19% damage) | 5 (5=80-100% damage) | 5 (5=80-100% damage) |
| Cn1ncc(-c2ccc(F)cc2[S+](C)[O-])c(O)c1=O (stereo not drawn) [Compound 1.057] | 5 (5=80-100% damage) | 5 (5=80-100% damage) | 5 (5=80-100% damage) | 5 (5=80-100% damage) | 5 (5=80-100% damage) | 5 (5=80-100% damage) | 5 (5=80-100% damage) | 5 (5=80-100% damage) | 5 (5=80-100% damage) | 2 (2=20-39% damage) | 5 (5=80-100% damage) | 5 (5=80-100% damage) |
| Cn1ncc(-c2ccc(F)cc2S(C)(=O)=O)c(O)c1=O [Compound 1.058] | 5 (5=80-100% damage) | 5 (5=80-100% damage) | 5 (5=80-100% damage) | 5 (5=80-100% damage) | 5 (5=80-100% damage) | 5 (5=80-100% damage) | 5 (5=80-100% damage) | 5 (5=80-100% damage) | 5 (5=80-100% damage) | 5 (5=80-100% damage) | 5 (5=80-100% damage) | 5 (5=80-100% damage) |
| Cn1ncc(-c2ccc(Cl)cc2[S+](C)[O-])c(O)c1=O (stereo not drawn) [Compound 1.059] | 5 (5=80-100% damage) | 5 (5=80-100% damage) | 5 (5=80-100% damage) | 5 (5=80-100% damage) | 5 (5=80-100% damage) | 5 (5=80-100% damage) | 5 (5=80-100% damage) | 5 (5=80-100% damage) | 5 (5=80-100% damage) | 5 (5=80-100% damage) | 5 (5=80-100% damage) | 5 (5=80-100% damage) |
| Cn1ncc(-c2ccc(Cl)cc2S(C)(=O)=O)c(O)c1=O [Compound 1.061] | 5 (5=80-100% damage) | 5 (5=80-100% damage) | 5 (5=80-100% damage) | 5 (5=80-100% damage) | 5 (5=80-100% damage) | 5 (5=80-100% damage) | 5 (5=80-100% damage) | 5 (5=80-100% damage) | 5 (5=80-100% damage) | 4 (4=60-79% damage) | 5 (5=80-100% damage) | 5 (5=80-100% damage) |
| COc1c(Cl)ccc(-c2cnn(C)c(=O)c2O)c1F [Compound 1.063] | 1 (1=0-19% damage) | 2 (2=20-39% damage) | 1 (1=0-19% damage) | 1 (1=0-19% damage) | 1 (1=0-19% damage) | 1 (1=0-19% damage) | 1 (1=0-19% damage) | 3 (3=40-59% damage) | 3 (3=40-59% damage) | 1 (1=0-19% damage) | 1 (1=0-19% damage) | 1 (1=0-19% damage) |
